Measurements published in PubChem BioAssay (NCI).
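Growth conditions: 96-well plates. Treatment: test compound, 48 hours, 5 concentrations. Analysis: linear interpolation between bracketing concentrations; unreached endpoints set to highest concentration. Definition used: TGI = concentration required for complete inhibition of growth.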

Assays:
Assay in all cases: inhibition of tumour cell growth, NCI panel, 48 h
MCF7 breast = system: MCF7 breast
A549 NSCLC = system: A549 NSCLC
MDA-MB-435 = system: MDA-MB-435
NCI/ADR-RES ovarian = system: NCI/ADR-RES ovarian
DU-145 prostate = system: DU-145 prostate
786-0 renal = system: 786-0 renal
SNB-19 CNS = system: SNB-19 CNS
HCT-116 colon = system: HCT-116 colon
U251 CNS = system: U251 CNS
SW-620 colon = system: SW-620 colon
MOLT-4 leukemia = system: MOLT-4 leukemia
HOP-62 NSCLC = system: HOP-62 NSCLC
RXF 393 renal = system: RXF 393 renal
SK-MEL-2 melanoma = system: SK-MEL-2 melanoma
A498 renal = system: A498 renal
M14 melanoma = system: M14 melanoma
SF-295 CNS = system: SF-295 CNS
SR leukemia = system: SR leukemia
BT-549 breast = system: BT-549 breast
RPMI-8226 leukemia = system: RPMI-8226 leukemia
HCT-15 colon = system: HCT-15 colon
HT29 colon = system: HT29 colon
HL-60(TB) leukemia = system: HL-60(TB) leukemia
MDA-N = system: MDA-N
UACC-257 melanoma = system: UACC-257 melanoma
UACC-62 melanoma = system: UACC-62 melanoma
HCC-2998 colon = system: HCC-2998 colon
CAKI-1 renal = system: CAKI-1 renal
NCI-H226 lung = system: NCI-H226 lung
SF-539 CNS = system: SF-539 CNS
LOX IMVI melanoma = system: LOX IMVI melanoma
COLO 205 colon = system: COLO 205 colon
SK-MEL-5 melanoma = system: SK-MEL-5 melanoma
SK-OV-3 ovarian = system: SK-OV-3 ovarian
ACHN renal = system: ACHN renal
EKVX NSCLC = system: EKVX NSCLC
IGROV1 ovarian = system: IGROV1 ovarian
OVCAR-4 ovarian = system: OVCAR-4 ovarian
HS 578T breast = system: HS 578T breast
HOP-92 NSCLC = system: HOP-92 NSCLC
NCI-H23 lung = system: NCI-H23 lung
T-47D breast = system: T-47D breast
CCRF-CEM leukemia = system: CCRF-CEM leukemia
KM12 colon = system: KM12 colon
SN12C renal = system: SN12C renal
MALME-3M melanoma = system: MALME-3M melanoma
K-562 leukemia = system: K-562 leukemia
UO-31 renal = system: UO-31 renal
OVCAR-5 ovarian = system: OVCAR-5 ovarian
SF-268 CNS = system: SF-268 CNS
OVCAR-8 ovarian = system: OVCAR-8 ovarian
NCI-H460 lung = system: NCI-H460 lung
NCI-H522 lung = system: NCI-H522 lung
OVCAR-3 ovarian = system: OVCAR-3 ovarian
TK-10 renal = system: TK-10 renal
PC-3 prostate = system: PC-3 prostate

SMILES: CCOC(=O)CCC(C(=O)OCC)n1nc2ccc(Nc3c(C)[n+]([O-])c4ccc(Cl)cc4[n+]3[O-])cc2n1 (stereo unspecified)
- TGI (MCF7 breast): 65.8 µM
- TGI (A549 NSCLC): 45.8 µM
- TGI (MDA-MB-435): > 100 µM
- TGI (NCI/ADR-RES ovarian): 48 µM
- TGI (DU-145 prostate): 60.9 µM
- TGI (786-0 renal): 33.8 µM
- TGI (SNB-19 CNS): 95.9 µM
- TGI (HCT-116 colon): 57.7 µM
- TGI (U251 CNS): 39.1 µM
- TGI (SW-620 colon): > 100 µM
- TGI (MOLT-4 leukemia): > 100 µM
- TGI (HOP-62 NSCLC): 40.4 µM
- TGI (RXF 393 renal): 27.3 µM
- TGI (SK-MEL-2 melanoma): 61 µM
- TGI (A498 renal): 56.3 µM
- TGI (M14 melanoma): > 100 µM
- TGI (SF-295 CNS): 39.1 µM
- TGI (SR leukemia): > 100 µM
- TGI (BT-549 breast): > 100 µM
- TGI (RPMI-8226 leukemia): > 100 µM
- TGI (HCT-15 colon): > 100 µM
- TGI (HT29 colon): > 100 µM
- TGI (HL-60(TB) leukemia): > 100 µM
- TGI (MDA-N): > 100 µM
- TGI (UACC-257 melanoma): 70.8 µM
- TGI (UACC-62 melanoma): > 100 µM
- TGI (HCC-2998 colon): 28 µM
- TGI (CAKI-1 renal): > 100 µM
- TGI (NCI-H226 lung): 51.5 µM
- TGI (SF-539 CNS): 43.9 µM
- TGI (LOX IMVI melanoma): 30 µM
- TGI (COLO 205 colon): > 100 µM
- TGI (SK-MEL-5 melanoma): 76.2 µM
- TGI (SK-OV-3 ovarian): 46.8 µM
- TGI (ACHN renal): 31.9 µM
- TGI (EKVX NSCLC): 41.1 µM
- TGI (IGROV1 ovarian): > 100 µM
- TGI (OVCAR-4 ovarian): > 100 µM
- TGI (HS 578T breast): 58.3 µM
- TGI (HOP-92 NSCLC): 71.4 µM
- TGI (NCI-H23 lung): 53.4 µM
- TGI (T-47D breast): 55.2 µM
- TGI (CCRF-CEM leukemia): > 100 µM
- TGI (KM12 colon): > 100 µM
- TGI (SN12C renal): 48.4 µM
- TGI (MALME-3M melanoma): > 100 µM
- TGI (K-562 leukemia): > 100 µM
- TGI (UO-31 renal): 35.6 µM
- TGI (OVCAR-5 ovarian): > 100 µM
- TGI (SF-268 CNS): 36.3 µM
- TGI (OVCAR-8 ovarian): 65.7 µM
- TGI (NCI-H460 lung): 33.6 µM
- TGI (NCI-H522 lung): > 100 µM
- TGI (OVCAR-3 ovarian): > 100 µM
- TGI (TK-10 renal): > 100 µM
- TGI (PC-3 prostate): > 100 µM
